15 compounds from PubChem BioAssay AID180 (DTP/NCI, 2004) can be followed below.

The assay has as its system BDF1 mice, Adenocarcinoma 755 s.c., tumor weight T/C. Nature of the assay: NCI In Vivo Anticancer Drug Screen. Data for tumor model Adenocarcinoma 755 (subcutaneous) in B6D2F1 (BDF1) mice. The settings on record: endpoint: mean tumor weight, schedule: Q01DX011 (ip), higher = larger tumour. The gist of the method:
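In vivo antitumor screen on a transplantable tumor line. Result equals the measure in compound-treated animals divided by the same measure in vehicle controls.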

[1] abbreviates: dose: 25.0 mg/kg/injection, vehicle: saline.
Where [2] appears, read: dose: 25.0 mg/kg/injection, vehicle: methylcellulose (MC).
The mark [3] stands for this setting: dose: 75.0 mg/kg/injection, vehicle: methylcellulose (MC).
Where [4] appears, read: dose: 200.0 mg/kg/injection, vehicle: carboxymethylcellulose (CMC).
The mark [5] stands for this setting: dose: 400.0 mg/kg/injection, vehicle: carboxymethylcellulose (CMC).
The mark [6] stands for this setting: dose: 800.0 mg/kg/injection, vehicle: carboxymethylcellulose (CMC).
Setting [7] is: dose: 12.0 mg/kg/injection, vehicle: carboxymethylcellulose (CMC).
The mark [8] stands for this setting: dose: 25.0 mg/kg/injection, vehicle: carboxymethylcellulose (CMC).
The mark [9] stands for this setting: dose: 50.0 mg/kg/injection, vehicle: carboxymethylcellulose (CMC).
Where [10] appears, read: dose: 100.0 mg/kg/injection, vehicle: carboxymethylcellulose (CMC).

Values joined by “and” are separate entries in the source; they are usually repeats but may differ in a detail not shown here. Equal values may be shown once.

What is called T/C is the ratio of treated to control.

Turning to `Cc1ccc(S(=O)(=O)NCCCCC(Nc2ncnc3nc[nH]c23)C(=O)O)cc1` (configuration not stated), the T/C under setting [1] is 81 % of control; the T/C (dose: 75.0 mg/kg/injection, vehicle: saline) was 21 % of control; the T/C (dose: 225.0 mg/kg/injection, vehicle: saline) is 4 % of control.
Regarding `OCCNc1ncnc2c1ncn2C1OC(CO)C(O)C1O` (configuration not stated), the T/C is, setting by setting: under setting [2], 55 % of control; (dose: 50.0 mg/kg/injection, vehicle: methylcellulose (MC)) 49 % of control; under setting [3], 17 % of control; (dose: 100.0 mg/kg/injection, vehicle: methylcellulose (MC)) 27 % of control; (dose: 200.0 mg/kg/injection, vehicle: methylcellulose (MC)) 7 % of control.
Turning to `O=[N+]([O-])c1ccc(Oc2cc(Cl)c(Cl)cc2Cl)c([N+](=O)[O-])c1`, the T/C by setting is: (dose: 100.0 mg/kg/injection, vehicle: other) 91 % of control; under setting [4], 56 % of control and 74 % of control; (dose: 200.0 mg/kg/injection, vehicle: other) 91 % of control; under setting [5], 61 % of control; (dose: 400.0 mg/kg/injection, vehicle: other) 54 % of control; under setting [6], 19 % of control. Besides, the T/C (dose: 800.0 mg/kg/injection, vehicle: other) is 33 % of control.
As for `Cc1ccc2ccccc2c1CSc1ncnc2nc[nH]c12`, the T/C (dose: 10.0 mg/kg/injection, vehicle: methylcellulose (MC)) is 38 % of control; the T/C (dose: 20.0 mg/kg/injection, vehicle: methylcellulose (MC)) is 40 % of control; the T/C (dose: 40.0 mg/kg/injection, vehicle: methylcellulose (MC)) is 11 % of control; the T/C (dose: 80.0 mg/kg/injection, vehicle: methylcellulose (MC)) was 9 % of control.
Take `NC(=O)CCl`: the T/C by setting is: (dose: 25.0 mg/kg/injection, vehicle: other) 91 % of control; (dose: 50.0 mg/kg/injection, vehicle: other) 64 % of control.
For the compound `COc1cc(-c2ccc(N=Nc3c(O)ccc4ccccc34)c(OC)c2)ccc1N=Nc1ccc2c(S(=O)(=O)O)cc(S(=O)(=O)O)c(N)c2c1O`, the T/C (dose: 62.0 mg/kg/injection, vehicle: carboxymethylcellulose (CMC)) was 63 % of control and 75 % of control; the T/C (dose: 112.0 mg/kg/injection, vehicle: carboxymethylcellulose (CMC)) was 60 % of control and 79 % of control; the T/C (dose: 225.0 mg/kg/injection, vehicle: carboxymethylcellulose (CMC)) is 39 % of control and 64 % of control; the T/C (dose: 450.0 mg/kg/injection, vehicle: carboxymethylcellulose (CMC)) was 29 % of control.
Turning to `Nc1nc(SCc2cccc([N+](=O)[O-])c2)c2[nH]cnc2n1`, the T/C is 41 % of control (dose: 37.5 mg/kg/injection, vehicle: methylcellulose (MC)); 8 % of control under setting [3]; 3 % of control (dose: 150.0 mg/kg/injection, vehicle: methylcellulose (MC)); 1 % of control (dose: 300.0 mg/kg/injection, vehicle: methylcellulose (MC)).
Regarding `CCOc1ccccc1C(=O)Nc1ccc(Br)cc1`, the T/C by setting is: under setting [7], 66 % of control; under setting [8], 45 % of control; under setting [9], 40 % of control; under setting [10], 28 % of control and 50 % of control; under setting [4], 17 % of control and 23 % of control; under setting [5], 7 % of control and 32 % of control. The T/C runs as follows: (dose: 400.0 mg/kg/injection, vehicle: saline) 32 % of control; (dose: 700.0 mg/kg/injection, vehicle: carboxymethylcellulose (CMC)) 22 % of control; under setting [6], 42 % of control; (dose: 800.0 mg/kg/injection, vehicle: saline) 21 % of control.
With `C=CC(O)CN1CC1(C)C` (configuration not stated) (tested in a mixture with another compound), the T/C is 99 % of control (dose: 1.9 mg/kg/injection, vehicle: methylcellulose (MC)); 107 % of control (dose: 3.75 mg/kg/injection, vehicle: methylcellulose (MC)); 75 % of control (dose: 15.0 mg/kg/injection, vehicle: methylcellulose (MC)).
Regarding `CC[N+](C)(C)c1ncnc2nc[nH]c12`, the T/C runs as follows: under setting [7], 88 % of control; (dose: 17.0 mg/kg/injection, vehicle: carboxymethylcellulose (CMC)) 80 % of control; under setting [8], 47 % of control and 52 % of control; (dose: 37.0 mg/kg/injection, vehicle: carboxymethylcellulose (CMC)) 33 % of control; under setting [9], 22 % of control; (dose: 75.0 mg/kg/injection, vehicle: carboxymethylcellulose (CMC)) 6 % of control. Moreover, under setting [10], the T/C was 3 % of control.
Consider `Nc1nc(SCc2ccc(Br)cc2)c2ncn(C3OC(CO)C(O)C3O)c2n1` (configuration not stated), for which the T/C is 80 % of control (dose: 6.0 mg/kg/injection, vehicle: methylcellulose (MC)); 32 % of control under setting [2]; 41 % of control (dose: 30.0 mg/kg/injection, vehicle: methylcellulose (MC)); 5 % of control under setting [3].
For `CN(C)[C@@H]1C(=O)C(C(=O)NCNc2nc3n[nH]nc3c(=O)[nH]2)=C(O)[C@@]2(O)C(=O)C3=C(O)c4c(O)cccc4[C@@](C)(O)[C@H]3C[C@@H]12`, the T/C runs as follows: under setting [1], 89 % of control; (dose: 50.0 mg/kg/injection, vehicle: saline) 93 % of control; (dose: 100.0 mg/kg/injection, vehicle: saline) 79 % of control; (dose: 200.0 mg/kg/injection, vehicle: saline) 40 % of control.
Regarding `CCCCOC(=O)C1(N)CCCC1`, the T/C reads like this: (dose: 3.12 mg/kg/injection, vehicle: carboxymethylcellulose (CMC)) 75 % of control; (dose: 6.25 mg/kg/injection, vehicle: carboxymethylcellulose (CMC)) 80 % of control; (dose: 12.5 mg/kg/injection, vehicle: carboxymethylcellulose (CMC)) 66 % of control; under setting [8], 29 % of control and 35 % of control; under setting [9], 12 % of control.
`Fc1cccc(CSc2ncnc3c2ncn3C2CCCS2)c1` (configuration not stated): the T/C was 61 % of control under setting [2]; 62 % of control under setting [3]; 32 % of control (dose: 225.0 mg/kg/injection, vehicle: methylcellulose (MC)).
Take `C1OC1C1CO1` (configuration not stated): the T/C was 83 % of control (dose: 3.05 mg/kg/injection, vehicle: carboxymethylcellulose (CMC)); 77 % of control (dose: 3.5 mg/kg/injection, vehicle: carboxymethylcellulose (CMC)); 72 % of control (dose: 7.0 mg/kg/injection, vehicle: carboxymethylcellulose (CMC)); 62 % of control and 68 % of control (dose: 8.13 mg/kg/injection, vehicle: carboxymethylcellulose (CMC)); 110 % of control (dose: 14.0 mg/kg/injection, vehicle: carboxymethylcellulose (CMC)); 24 % of control and 33 % of control and 45 % of control (dose: 24.4 mg/kg/injection, vehicle: carboxymethylcellulose (CMC)). Also, the T/C (dose: 28.0 mg/kg/injection, vehicle: carboxymethylcellulose (CMC)) was 61 % of control.
